Source: US9393221B2, “Methods and compounds for reducing intracellular lipid storage” (THE GENERAL HOSPITAL CORPORATION, priority 2011, dated 2016)
Structures can show the parent of a compound that is named as a salt.

The compounds below were run on ATGL-KO iPSCs (assay: High throughput iPSC chemical screening, Oil Red O (ORO) lipid accumulation). Details: not given.
Type: cell-based, mouse
Throughout, for Z-score: test concentration or dose not given here.

Compound | Z-score
CCN(CC)CCCC(C)Nc1ccnc2cc(Cl)ccc12 (centres unmarked) [Chloroquine diphosphate] | 0.8301

Same assay, conditions: glycolytic switch compounds

Compound | Rank in normalized ORO score from screen
CN(C)CC/C=C1/c2ccccc2Sc2ccc(Cl)cc21 [Chlorprothixene hydrochloride] | 223
O=C1C=CC(=O)c2c1ccc1c2ccc2ccccc21 [Chrysene-1,4-quinone] | 133
C(=C\c1ccccc1)/CN1CCN(C(c2ccccc2)c2ccccc2)CC1 [Cinnarizine] | 44
CN1CCC[C@@H]1CCO[C@](C)(c1ccccc1)c1ccc(Cl)cc1 [Clemastine fumarate] | 197

Same assay, conditions: normalized ORO level vs DMSO-treated cells; compound present during 7 days differentiation, 96-well; negative = decrease in lipid accumulation

Compound | Z-score
NC(N)=NOCC[C@H](N)C(=O)O.O.O=S(=O)(O)O [Canavanine sulfate monohydrate (L,+)] | −0.5687
C[C@]12CCC(=O)C=C1C=C[C@@H]1[C@@H]2CC[C@@]2(C)[C@H]1CC[C@@]2(O)CCC(=O)O [Canrenoic acid potassium salt] | −0.274
C[C@@]12C(=O)OC(=O)[C@]1(C)[C@H]1CC[C@@H]2O1 [Cantharidin] | 18.9862
COc1cc(CNC(=O)CCCC/C=C/C(C)C)ccc1O [Capsaicin] | 0.3383
C[C@H](CS)C(=O)N1CCC[C@H]1C(=O)O [Captopril] | −0.2654
C[N+](C)(C)CCOC(N)=O [Carbachol] | 0.7384
NC(=O)N1c2ccccc2C=Cc2ccccc21 [Carbamazepine] | 0.2892
CC1(C)[C@@H](OC(=O)CCC(=O)O)CC[C@]2(C)[C@H]3C(=O)C=C4[C@@H]5C[C@@](C)(C(=O)O)CC[C@]5(C)CC[C@@]4(C)[C@]3(C)CC[C@@H]12 [Carbenoxolone disodium salt] | −1.2656
CCN(CC)CCOCCOC(=O)C1(c2ccccc2)CCCC1 [Carbetapentane citrate] | 1.581
CCOC(=O)n1ccn(C)c1=S [Carbimazole] | −0.836
NCCC(=O)NCCc1c[nH]cn1 [Carcinine] | 0.6838
CCCC(C)(COC(N)=O)COC(=O)NC(C)C (centres unmarked) [Carisoprodol] | 0.5591
CC(C)(C)NCC(O)COc1cccc2c1CCC(=O)N2 (centres unmarked) [Carteolol hydrochloride] | −0.6876
N[C@@H](C(=O)N[C@@H]1C(=O)N2C(C(=O)O)=C(Cl)CS[C@H]12)c1ccccc1 [Cefaclor] | −0.5619
CC1=C(C(=O)O)N2C(=O)[C@@H](NC(=O)[C@H](N)c3ccc(O)cc3)[C@H]2SC1 [Cefadroxil] | −0.5419
NC(=O)c1cc[n+](CC2=C(C(=O)[O-])N3C(=O)[C@@H](NC(=O)Cc4cccs4)[C@H]3SC2)cc1 [Cefalonium] | −0.8363
Cn1nnnc1SCC1=C(C(=O)O)N2C(=O)[C@@H](NC(=O)[C@H](O)c3ccccc3)[C@H]2SC1 [Cefamandole sodium salt] | −0.5703
Cc1nnc(SCC2=C(C(=O)O)N3C(=O)[C@@H](NC(=O)Cn4cnnn4)[C@H]3SC2)s1 [Cefazolin sodium salt] | −0.8698
CO/N=C(\C(=O)N[C@@H]1C(=O)N2C(C(=O)O)=C(C[N+]3(C)CCCC3)CS[C@H]12)c1csc(N)n1 [Cefepime hydrochloride] | 1.172
C=CC1=C(C(=O)O)N2C(=O)[C@@H](NC(=O)/C(=N\OCC(=O)O)c3csc(N)n3)[C@H]2SC1 [Cefixime] | 1.521
CO[C@@]1(NC(=O)CSCC#N)C(=O)N2C(C(=O)O)=C(CSc3nnnn3C)CS[C@@H]21 [Cefmetazole sodium salt] | −0.8537
CCN1CCN(C(=O)N[C@@H](C(=O)N[C@@H]2C(=O)N3C(C(=O)O)=C(CSc4nnnn4C)CS[C@H]23)c2ccc(O)cc2)C(=O)C1=O [Cefoperazone dihydrate] | 0.4847
NCc1ccccc1CC(=O)N[C@@H]1C(=O)N2C(C(=O)O)=C(CSc3nnnn3CC(=O)O)CS[C@H]12 [Ceforanide] | 1.929

Compound | Z-score
CO/N=C(\C(=O)N[C@@H]1C(=O)N2C(C(=O)O)=C(COC(C)=O)CS[C@H]12)c1csc(N)n1 [Cefotaxime sodium salt] | −0.8289
CO[C@@]1(NC(=O)C2SC(=C(C(N)=O)C(=O)O)S2)C(=O)N2C(C(=O)O)=C(CSc3nnnn3C)CS[C@@H]21 (some centres unmarked) [Cefotetan] | 2.584
CN(C)CCn1nnnc1SCC1=C(C(=O)O)N2C(=O)[C@@H](NC(=O)Cc3csc(N)n3)[C@H]2SC1 [Cefotiam hydrochloride] | −0.8453
CO[C@@]1(NC(=O)Cc2cccs2)C(=O)N2C(C(=O)O)=C(COC(N)=O)CS[C@@H]21 [Cefoxitin sodium salt] | −1.629
NC(=O)c1cc[n+](CC2=C(C(=O)O)N3C(=O)[C@@H](NC(=O)[C@@H](c4ccccc4)S(=O)(=O)[O-])[C@H]3SC2)cc1 [Cefsulodin sodium salt] | −1.1155
CC(C)(O/N=C(\C(=O)N[C@@H]1C(=O)N2C(C(=O)[O-])=C(C[n+]3ccccc3)CS[C@H]12)c1csc(N)n1)C(=O)O [Ceftazidime pentahydrate] | 0.00611
CO/N=C(\C(=O)N[C@@H]1C(=O)N2C(C(=O)O)=C(COC(N)=O)CS[C@H]12)c1ccco1 [Cefuroxime sodium salt] | 0.8177
CC[C@H]1CN2CCc3cc(OC)c(OC)cc3[C@@H]2C[C@@H]1C[C@H]1NCCc2cc(O)c(OC)cc21.Cl.Cl.O.O.O.O.O.O.O [Cephaeline dihydrochloride heptahydrate] | 26.5614
CC1=C(C(=O)O)N2C(=O)[C@@H](NC(=O)[C@H](N)c3ccccc3)[C@H]2SC1 [Cephalexin monohydrate] | −1.1486
CC(=O)OCC1=C(C(=O)O)N2C(=O)[C@@H](N)[C@H]2SC1 [Cephalosporanic acid, 7-amino] | 0.3224
CC(=O)OCC1=C(C(=O)O)N2C(=O)[C@@H](NC(=O)Cc3cccs3)[C@H]2SC1 [Cephalothin sodium salt] | 0.8566
O=C(O)COCCN1CCN(C(c2ccccc2)c2ccc(Cl)cc2)CC1 (centres unmarked) [Cetirizine dihydrochloride] | −0.3764
CN1Cc2c(ccc3c2OCO3)C2C(O)Cc3cc4c(cc3C21)OCO4 (stereo not drawn) [Chelidonine (+)] | 16.9912
C[C@H](CCC(=O)O)[C@H]1CC[C@H]2[C@@H]3[C@H](O)C[C@@H]4C[C@H](O)CC[C@]4(C)[C@H]3CC[C@]12C [Chenodiol] | −1.6767
COc1cc(-c2ccc(N=Nc3ccc4c(S(=O)(=O)[O-])cc(S(=O)(=O)[O-])c(N)c4c3O)c(OC)c2)ccc1N=Nc1ccc2c(S(=O)(=O)[O-])cc(S(=O)(=O)[O-])c(N)c2c1O.[Na+].[Na+].[Na+].[Na+] [Chicago sky blue 6B] | 0.6958
O=C(O)CCCc1ccc(N(CCCl)CCCl)cc1 [Chlorambucil] | −0.8818
O=C(N[C@H](CO)[C@H](O)c1ccc([N+](=O)[O-])cc1)C(Cl)Cl [Chloramphenicol] | 1.318
[H]/N=C(\N/C(=N/[H])NCCCCCCNC(=N)NC(=N)Nc1ccc(Cl)cc1)Nc1ccc(Cl)cc1 [Chlorhexidine] | 24.4911
CN1C(=O)CCS(=O)(=O)C1c1ccc(Cl)cc1 (centres unmarked) [Chlormezanone] | −0.6525
O=C(/C=C/c1ccc(O)c(O)c1)O[C@@H]1C[C@](O)(C(=O)O)C[C@@H](O)[C@H]1O [Chlorogenic acid] | 0.1486
CN(C)CCN(Cc1ccc(Cl)cc1)c1ccccn1 [Chloropyramine hydrochloride] | 0.124
NS(=O)(=O)c1cc2c(cc1Cl)N=CNS2(=O)=O [Chlorothiazide] | −0.1987
COc1ccc(C(Cl)=C(c2ccc(OC)cc2)c2ccc(OC)cc2)cc1 [Chlorotrianisene] | −0.6534

Compound | Z-score
CN(C)CCC(c1ccc(Cl)cc1)c1ccccn1 (centres unmarked) [Chlorpheniramine maleate] | −0.5399
NC(=O)OCC(O)COc1ccc(Cl)cc1 (centres unmarked) [Chlorphensin carbamate] | 0.4583
CN(C)CCCN1c2ccccc2Sc2ccc(Cl)cc21 [Chlorpromazine hydrochloride] | −0.5417
CCCNC(=O)NS(=O)(=O)c1ccc(Cl)cc1 [Chlorpropamide] | 0.199
CN(C)CC/C=C1/c2ccccc2Sc2ccc(Cl)cc21 [Chlorprothixene hydrochloride] | −0.9824
CN(C)[C@@H]1C(O)=C(C(N)=O)C(=O)[C@@]2(O)C(O)=C3C(=O)c4c(O)ccc(Cl)c4[C@@](C)(O)[C@H]3C[C@@H]12 [Chlortetracycline hydrochloride] | −0.5479
NS(=O)(=O)c1cc(C2(O)NC(=O)c3ccccc32)ccc1Cl (centres unmarked) [Chlorthalidone] | −0.3195
C=C1CC[C@H](O)C/C1=C/C=C1\CCC[C@]2(C)[C@@H]([C@H](C)CCCC(C)C)CC[C@@H]12 [Cholecalciferol] | 0.4701
O=C1C=CC(=O)c2c1ccc1c2ccc2ccccc21 [Chrysene-1,4-quinone] | −1.1808
O=c1cc(-c2ccccc2)oc2cc(O)cc(O)c12 [Chrysin] | −0.7142
Cc1cc(C2CCCCC2)n(O)c(=O)c1.NCCO [Ciclopirox ethanolamine] | 40.334
CN/C(=N/CCSCc1nc[nH]c1C)NC#N [Cimetidine] | −0.2141
C=C[C@H]1C[N@@]2CC[C@H]1C[C@@H]2[C@@H](O)c1ccnc2ccccc12 [Cinchonine] | −1.1697
C(=C\c1ccccc1)/CN1CCN(C(c2ccccc2)c2ccccc2)CC1 [Cinnarizine] | −1.6064
CCn1nc(C(=O)O)c(=O)c2cc3c(cc21)OCO3 [Cinoxacin] | 0.8009
CC(C)(Oc1ccc(C2CC2(Cl)Cl)cc1)C(=O)O (centres unmarked) [Ciprofibrate] | −0.5993
O=C(O)c1cn(C2CC2)c2cc(N3CCNCC3)c(F)cc2c1=O [Ciprofloxacin hydrochloride] | −1.3212
COc1cc(N)c(Cl)cc1C(=O)NC1CCN(CCCOc2ccc(F)cc2)CC1OC (centres unmarked) [Cisapride] | 0.02062
CN(C)CCCC1(c2ccc(F)cc2)OCc2cc(C#N)ccc21 (centres unmarked) [Citalopram Hydrobromide] | 0.03052
COc1cc(N)c(Cl)cc1C(=O)NC1CCN(Cc2ccccc2)CC1 [Clebopride maleate] | −0.108
CN1CCC[C@@H]1CCO[C@](C)(c1ccccc1)c1ccc(Cl)cc1 [Clemastine fumarate] | −1.0269
Clc1ccc(Cn2c(CN3CCCC3)nc3ccccc32)cc1 [Clemizole hydrochloride] | −0.5701
CC(C)(C)NCC(O)c1cc(Cl)c(N)c(Cl)c1 (centres unmarked) [Clenbuterol hydrochloride] | 0.2391
